Measured values as given in ChEMBL document CHEMBL1151685, “Structure-activity relationship of antibacterial chalcones” (2008).
Values after ≈ are worked out from the molar mass of the structure shown.

Experiments:
Assay type in all cases: functional
Staphylococcus aureus = assay: Antibacterial activity against Staphylococcus aureus ATCC 25923 after 24 hrs by microdilution broth method; settings: ATCC 25923, 24 h
Escherichia coli = assay: Antibacterial activity against Escherichia coli ATCC 25922 after 24 hrs by microdilution broth method; settings: ATCC 25922, 24 h
Pseudomonas aeruginosa = assay: Antibacterial activity against Pseudomonas aeruginosa ATCC 27853 after 24 hrs by microdilution broth method; settings: ATCC 27853, 24 h
Bacillus cereus = assay: Antibacterial activity against Bacillus cereus ATCC 11778 after 24 hrs by microdilution broth method; settings: ATCC 11778, 24 h

SMILES	MBC (Staphylococcus aureus)	MIC (Staphylococcus aureus)	MBC (Escherichia coli)	MIC (Escherichia coli)	MBC (Pseudomonas aeruginosa)	MIC (Pseudomonas aeruginosa)	MBC (Bacillus cereus)	MIC (Bacillus cereus)
COc1ccc(C(=O)/C=C/c2ccc(O)cc2)cc1	2000 µg/mL (≈ 7.87 mM)	2000 µg/mL (≈ 7.87 mM)	2000 µg/mL (≈ 7.87 mM)	1000 µg/mL (≈ 3.93 mM)	2000 µg/mL (≈ 7.87 mM)	1000 µg/mL (≈ 3.93 mM)	2000 µg/mL (≈ 7.87 mM)	2000 µg/mL (≈ 7.87 mM)
O=C(CCc1ccccc1O)c1ccccc1	500 µg/mL (≈ 2.21 mM)	500 µg/mL (≈ 2.21 mM)	2000 µg/mL (≈ 8.84 mM)	2000 µg/mL (≈ 8.84 mM)	2000 µg/mL (≈ 8.84 mM)	1000 µg/mL (≈ 4.42 mM)	500 µg/mL (≈ 2.21 mM)	500 µg/mL (≈ 2.21 mM)
COc1ccc(C(=O)/C=C/c2ccccc2O)c(O)c1CC=C(C)C	> 2000 µg/mL	2000 µg/mL (≈ 5.91 mM)	2000 µg/mL (≈ 5.91 mM)	2000 µg/mL (≈ 5.91 mM)	2000 µg/mL (≈ 5.91 mM)	2000 µg/mL (≈ 5.91 mM)	2000 µg/mL (≈ 5.91 mM)	2000 µg/mL (≈ 5.91 mM)
COc1cc(OC)c(C(=O)CCc2ccc3c(c2)OCO3)cc1OC	2000 µg/mL (≈ 5.81 mM)	2000 µg/mL (≈ 5.81 mM)	2000 µg/mL (≈ 5.81 mM)	2000 µg/mL (≈ 5.81 mM)	2000 µg/mL (≈ 5.81 mM)	2000 µg/mL (≈ 5.81 mM)	2000 µg/mL (≈ 5.81 mM)	2000 µg/mL (≈ 5.81 mM)
COc1ccc(/C=C/C(=O)c2ccc(OC)c(CC=C(C)C)c2O)cc1	2000 µg/mL (≈ 5.67 mM)	2000 µg/mL (≈ 5.67 mM)	> 2000 µg/mL	2000 µg/mL (≈ 5.67 mM)	2000 µg/mL (≈ 5.67 mM)	2000 µg/mL (≈ 5.67 mM)	2000 µg/mL (≈ 5.67 mM)	2000 µg/mL (≈ 5.67 mM)
CC(C)=CCC/C(C)=C\Cc1c(O)ccc(C(=O)/C=C/c2ccc(O)cc2)c1O	31.2 µg/mL (≈ 0.0795 mM)	31.2 µg/mL (≈ 0.0795 mM)	2000 µg/mL (≈ 5.1 mM)	1000 µg/mL (≈ 2.55 mM)	2000 µg/mL (≈ 5.1 mM)	1000 µg/mL (≈ 2.55 mM)	15.6 µg/mL (≈ 0.0397 mM)	15.6 µg/mL (≈ 0.0397 mM)
COc1ccc(C(=O)/C=C/c2cccc(O)c2)c(O)c1CC=C(C)C	2000 µg/mL (≈ 5.91 mM)	2000 µg/mL (≈ 5.91 mM)	2000 µg/mL (≈ 5.91 mM)	2000 µg/mL (≈ 5.91 mM)	2000 µg/mL (≈ 5.91 mM)	2000 µg/mL (≈ 5.91 mM)	1000 µg/mL (≈ 2.96 mM)	1000 µg/mL (≈ 2.96 mM)
COc1ccc(C(=O)/C=C/c2ccc(O)cc2)c(O)c1CC=C(C)C	7.8 µg/mL (≈ 0.023 mM)	7.8 µg/mL (≈ 0.023 mM)	2000 µg/mL (≈ 5.91 mM)	2000 µg/mL (≈ 5.91 mM)	2000 µg/mL (≈ 5.91 mM)	2000 µg/mL (≈ 5.91 mM)	3.9 µg/mL (≈ 0.0115 mM)	3.9 µg/mL (≈ 0.0115 mM)
COc1cc(OC)c(OC)cc1/C=C/C(=O)c1cc(OC)c(OC)cc1OC	> 2000 µg/mL	> 2000 µg/mL	> 2000 µg/mL	> 2000 µg/mL	2000 µg/mL (≈ 5.15 mM)	2000 µg/mL (≈ 5.15 mM)	> 2000 µg/mL	> 2000 µg/mL
COc1ccc(/C=C/C(=O)c2c(OC)cc(OC)c(OC)c2OC(C)=O)cc1	> 2000 µg/mL	2000 µg/mL (≈ 5.18 mM)	> 2000 µg/mL	1000 µg/mL (≈ 2.59 mM)	2000 µg/mL (≈ 5.18 mM)	1000 µg/mL (≈ 2.59 mM)	> 2000 µg/mL	2000 µg/mL (≈ 5.18 mM)
COc1cc(OC)c(OC)cc1/C=C/C(=O)c1ccc(OC)c(OC)c1	> 2000 µg/mL	2000 µg/mL (≈ 5.58 mM)	> 2000 µg/mL	1000 µg/mL (≈ 2.79 mM)	> 2000 µg/mL	2000 µg/mL (≈ 5.58 mM)	> 2000 µg/mL	2000 µg/mL (≈ 5.58 mM)
CC(C)=CCOc1ccc(C(=O)/C=C/c2ccc(O)cc2)c(O)c1	2000 µg/mL (≈ 6.17 mM)	2000 µg/mL (≈ 6.17 mM)	> 2000 µg/mL	2000 µg/mL (≈ 6.17 mM)	2000 µg/mL (≈ 6.17 mM)	2000 µg/mL (≈ 6.17 mM)	1000 µg/mL (≈ 3.08 mM)	1000 µg/mL (≈ 3.08 mM)
COc1ccc(/C=C/C(=O)c2cc(OC)c(OC)cc2O)cc1	> 2000 µg/mL	2000 µg/mL (≈ 6.36 mM)	> 2000 µg/mL	2000 µg/mL (≈ 6.36 mM)	> 2000 µg/mL	1000 µg/mL (≈ 3.18 mM)	> 2000 µg/mL	1000 µg/mL (≈ 3.18 mM)
COc1cc(OC)c(C(=O)/C=C/c2ccc3c(c2)OCO3)c(OC)c1OC	> 2000 µg/mL	> 2000 µg/mL	2000 µg/mL (≈ 5.37 mM)	2000 µg/mL (≈ 5.37 mM)	2000 µg/mL (≈ 5.37 mM)	2000 µg/mL (≈ 5.37 mM)	> 2000 µg/mL	2000 µg/mL (≈ 5.37 mM)
COc1ccc(C(=O)/C=C/c2c(OC)cc(OC)c(OC)c2OC)cc1OC	> 2000 µg/mL	2000 µg/mL (≈ 5.15 mM)	> 2000 µg/mL	2000 µg/mL (≈ 5.15 mM)	> 2000 µg/mL	2000 µg/mL (≈ 5.15 mM)	2000 µg/mL (≈ 5.15 mM)	2000 µg/mL (≈ 5.15 mM)
